Earlier results in PMC11674187, “Inhibitory Effects of Cenobamate on Multiple Human Cardiac Ion Channels and Possible Arrhythmogenic Consequences” (Biomolecules, 2024).

Experiments:
[1] = test system: human ventricular cardiomyocyte electrophysiology model; design: method as in ref [18] Dutta et al., 2017; settings: 12-compound CiPA training set; ref [18] Dutta et al., 2017; cited from earlier work
persistent INa = test system: persistent INa; design: method as in ref [5] p. 8; settings: other antiseizure drugs; ref [5] p. 8; cited from earlier work
Nav1.5 = Nav1.5 (Homo sapiens, UniProt Q14524); design: method as in PMID 34785211, PMID 33620150; settings: PT 35–37 °C vs. room temperature; ref [11],[40]; cited from earlier work
Sequence of Nav1.5 (Q14524 whole entry): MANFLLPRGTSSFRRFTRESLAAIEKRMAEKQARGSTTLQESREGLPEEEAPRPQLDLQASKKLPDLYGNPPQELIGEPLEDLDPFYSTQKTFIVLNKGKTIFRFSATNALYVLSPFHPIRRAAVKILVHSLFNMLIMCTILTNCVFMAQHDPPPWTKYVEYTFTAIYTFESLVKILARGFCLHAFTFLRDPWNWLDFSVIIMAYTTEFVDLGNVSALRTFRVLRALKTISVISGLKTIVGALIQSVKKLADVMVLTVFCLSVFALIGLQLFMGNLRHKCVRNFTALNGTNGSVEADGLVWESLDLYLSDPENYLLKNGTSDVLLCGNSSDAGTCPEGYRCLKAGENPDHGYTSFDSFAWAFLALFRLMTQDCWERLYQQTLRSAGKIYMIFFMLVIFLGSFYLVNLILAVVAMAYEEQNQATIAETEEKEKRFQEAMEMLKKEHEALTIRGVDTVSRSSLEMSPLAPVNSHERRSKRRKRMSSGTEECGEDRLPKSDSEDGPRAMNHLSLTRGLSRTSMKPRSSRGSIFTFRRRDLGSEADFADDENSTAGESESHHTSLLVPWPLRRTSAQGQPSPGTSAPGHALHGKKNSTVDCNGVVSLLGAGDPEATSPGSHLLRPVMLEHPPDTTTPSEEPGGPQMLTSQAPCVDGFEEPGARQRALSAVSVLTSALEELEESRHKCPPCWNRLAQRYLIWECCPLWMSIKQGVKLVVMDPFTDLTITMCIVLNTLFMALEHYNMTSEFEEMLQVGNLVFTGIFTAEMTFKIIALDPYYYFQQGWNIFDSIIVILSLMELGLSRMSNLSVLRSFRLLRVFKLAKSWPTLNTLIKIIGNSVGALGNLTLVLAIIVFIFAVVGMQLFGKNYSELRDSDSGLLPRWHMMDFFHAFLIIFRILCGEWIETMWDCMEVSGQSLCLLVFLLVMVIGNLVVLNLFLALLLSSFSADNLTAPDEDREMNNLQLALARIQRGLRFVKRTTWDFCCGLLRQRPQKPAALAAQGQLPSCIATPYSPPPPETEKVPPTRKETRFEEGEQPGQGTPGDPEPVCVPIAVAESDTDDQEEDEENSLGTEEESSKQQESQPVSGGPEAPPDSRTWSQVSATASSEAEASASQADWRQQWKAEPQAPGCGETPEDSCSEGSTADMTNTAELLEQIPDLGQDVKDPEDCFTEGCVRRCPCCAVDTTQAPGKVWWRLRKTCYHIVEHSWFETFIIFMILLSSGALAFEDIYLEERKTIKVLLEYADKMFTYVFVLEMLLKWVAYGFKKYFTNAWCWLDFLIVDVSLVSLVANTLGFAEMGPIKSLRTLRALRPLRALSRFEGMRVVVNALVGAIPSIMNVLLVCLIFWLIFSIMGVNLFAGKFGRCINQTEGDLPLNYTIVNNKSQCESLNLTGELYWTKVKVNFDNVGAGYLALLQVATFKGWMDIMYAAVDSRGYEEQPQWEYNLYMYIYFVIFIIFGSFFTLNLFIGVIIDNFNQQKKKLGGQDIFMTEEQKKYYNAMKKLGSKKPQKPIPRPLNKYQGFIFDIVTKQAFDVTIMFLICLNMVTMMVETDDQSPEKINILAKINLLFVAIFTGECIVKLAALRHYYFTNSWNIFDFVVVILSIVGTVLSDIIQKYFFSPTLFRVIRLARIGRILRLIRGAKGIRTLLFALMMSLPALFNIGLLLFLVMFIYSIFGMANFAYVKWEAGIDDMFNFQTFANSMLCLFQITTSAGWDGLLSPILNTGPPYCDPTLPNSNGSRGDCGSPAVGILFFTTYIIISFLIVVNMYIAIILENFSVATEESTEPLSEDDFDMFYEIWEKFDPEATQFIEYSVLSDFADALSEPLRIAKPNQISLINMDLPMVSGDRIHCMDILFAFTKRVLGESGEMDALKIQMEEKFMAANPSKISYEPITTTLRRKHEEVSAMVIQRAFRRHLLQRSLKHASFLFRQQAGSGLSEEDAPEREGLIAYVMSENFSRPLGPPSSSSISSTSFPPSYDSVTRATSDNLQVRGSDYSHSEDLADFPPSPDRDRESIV

SMILES | CiPA torsadogenic risk category [1] | also measured
CN(C)CCCN1c2ccccc2Sc2ccc(Cl)cc21 [chlorpromazine] | intermediate risk | 
CN(CCOc1ccc(NS(C)(=O)=O)cc1)CCc1ccc(NS(C)(=O)=O)cc1 [dofetilide] | high risk | 
COc1cc(N)c(Cl)cc1C(=O)NC1CCN(CCCOc2ccc(F)cc2)CC1OC (stereo not shown) [cisapride] | intermediate risk | 
Nc1nnc(-c2cccc(Cl)c2Cl)c(N)n1 [lamotrigine] |  | IC50 (persistent INa): 119 µM
CCN(CC)CCCC(C)Nc1ccnc2cc(Cl)ccc12 (stereo not shown) [chloroquine] |  | change of apparent IC50 on peak Na+ current at physiological vs. room temperature (Nav1.5): approximately four-fold reduction
CCN(CCO)CCCC(C)Nc1ccnc2cc(Cl)ccc12 (stereo not shown) [hydroxychloroquine] |  | change of apparent IC50 on peak Na+ current at physiological vs. room temperature (Nav1.5): more than a two-fold reduction
Cc1nccn1CC1CCc2c(c3ccccc3n2C)C1=O (stereo not shown) [ondansetron] | intermediate risk | 
Nc1nc2ccc(OC(F)(F)F)cc2s1 [riluzole] |  | IC50 (persistent INa): 2 µM
C=C[C@H]1C[N@@]2CC[C@H]1C[C@@H]2[C@@H](O)c1ccnc2ccc(OC)cc12 [quinidine] | high risk | 
NC(=O)N1c2ccccc2C=Cc2ccccc21 [carbamazepine] |  | IC50 (persistent INa): 79.2 µM
CC(C)COCC(CN(Cc1ccccc1)c1ccccc1)N1CCCC1 (stereo not shown) [bepridil] | high risk | 
Cc1cccc(C)c1OCC(C)N (stereo not shown) [mexiletine] | low risk | 
COc1ccccc1OCC(O)CN1CCN(CC(=O)Nc2c(C)cccc2C)CC1 (stereo not shown) [ranolazine] | low risk | 
